In US20250346615A1, “GLYCEROPHOSP[…] PREVENTING AND TREATING COVID-19 INFECTIONS AND METHOD FOR OBTAINING IT” (PLANTAREI BIOTECH S.R.L., priority 2022, published 2025):
Read-outs that look alike come from different tables or passages of the source.

Tests used:
Human monocytes [1] = details: GPI 300 uM; for protein expression level (fold increase over control cells): LPS stimulus
Source text: (§1) The purpose of the experiments conducted is the in vitro evaluation of the anti-inflammatory activity and of the immune modulating power in the response to bacterial or viral activation, of monocytes activated and treated with GPI. Measurements of protein production or miRNA levels were expressed as an increase relative to the respective control (unstimulated) cells.
Human monocytes were isolated from fresh buffy coats of healthy blood donors, kindly provided by the Centro Immunotrasfusionale, Hospital of Ferrara, Italy, through a Ficoll-Paque™ PLUS gradient followed by Percoll™. PBMCs were firstly obtained by 1.077 g/ML Ficoll-Paque™ PLUS (GE Healthcare Life Sciences, Little Chalfont, UK) density gradient separation according to the manufacturer's protocol. After collecting the mononuclear cells located at the interface between Ficoll and plasma-medium layer, these were washed with PBS, then layered over a solution of 1.130 g/mL Percoll™ (GE Healthcare Life Sciences) before centrifugation at 1650 rpm for 30 min at 4° C. The monocyte layer, which appeared cloudy and occasionally with few red spots, was carefully aspirated and washed with PBS to remove traces of Percoll™. The harvested monocytes were then suspended in RPMI 1640 medium (EuroClone) containing 2% FBS, and incubated at 37° C. and 5% CO2. After 1 h, non-adherent cells including residual lymphocytes were removed, and monocytes were detached using a cell scraper, then seeded onto plastic culture wells. […]
The supernatants of the cultures after 5 and 24 h were collected, centrifuged at 400×g for 10 min at 4° C., then analyzed for TF HGF, PGE-2 and IL-10 production using commercial ELISA kits (Thermo Fisher Scientific) according to the manufacturer's instructions. […]
Measurements of protein production or miRNA levels were expressed as fold increase over the respective control (unstimulated) cells, and are means (SD) of triplicates from one representative experiment of 4 experiments performed with cells from different donors.

Human monocytes [2] = details: GPI 300 uM, 24 hours of treatment (FIG. 5)
Source text: as §1
Human monocytes were isolated from fresh buffy coats of healthy blood donors, kindly provided by the Centro Immunotrasfusionale, Hospital of Ferrara, Italy, through a Ficoll-Paque™ PLUS gradient followed by Percoll™. […]
Total RNA was extracted from cultures after 12 and 24 h using the total RNA purification Plus kit, The RNA quality and concentration of the samples were measured with the NanoDrop™ ND-1000 (Thermo Fisher Scientific). […]
Real-time PCR was performed according to the user's manual of the Inflammatory RT^2 profiler PCR Array (Qiagen) with a StepOnePlus™ Real-Time PCR System (Applied Biosystems™, Foster City, CA, USA) and using RT^2 SYBR Green ROX FAST Master Mix (Qiagen). Thermal cycling and fluorescence detection were as follows: 95° C. for 10 min, followed by 40 cycles of 95° C. for 15 s, and 60° C. for 1 min. […] Data were analyzed using the Web-based PCR array data analysis software, which is available at https://www.qiagen.com/it/shop/genes-and-pathways/data-analysis-center-overview-page/. […]

Human monocytes [3] = details: GPI 300 uM, activated monocytes, 24 hours of treatment (FIG. 6)
Source text: Human monocytes were isolated from fresh buffy coats of healthy blood donors, kindly provided by the Centro Immunotrasfusionale, Hospital of Ferrara, Italy, through a Ficoll-Paque™ PLUS gradient followed by Percoll™. PBMCs were firstly obtained by 1.077 g/ML Ficoll-Paque™ PLUS (GE Healthcare Life Sciences, Little Chalfont, UK) density gradient separation according to the manufacturer's protocol. After collecting the mononuclear cells located at the interface between Ficoll and plasma-medium layer, these were washed with PBS, then layered over a solution of 1.130 g/mL Percoll™ (GE Healthcare Life Sciences) before centrifugation at 1650 rpm for 30 min at 4° C. The monocyte layer, which appeared cloudy and occasionally with few red spots, was carefully aspirated and washed with PBS to remove traces of Percoll™. The harvested monocytes were then suspended in RPMI 1640 medium (EuroClone) containing 2% FBS, and incubated at 37° C. and 5% CO2. After 1 h, non-adherent cells including residual lymphocytes were removed, and monocytes were detached using a cell scraper, then seeded onto plastic culture wells.
Treatment with GPI: 300 uM. […]
Measurements of protein production or miRNA levels were expressed as fold increase over the respective control (unstimulated) cells, and are means (SD) of triplicates from one representative experiment of 4 experiments performed with cells from different donors. […]

Q: How did the “protein expression level (fold increase over control cells)” value (Human monocytes [1]; 5 hours of treatment (FIG. 3)) turn out when “L-α-glycero-phospho-D-myo-inositol [GPI]” was run?
A: The value was “inhibitory effects”.

Q: What about the “protein expression level (fold increase over control cells)” value (Human monocytes [1]; 24 hours of treatment (FIG. 4)) of the same substance?
A: Its value is “inhibitory effects”.

Q: And the inflammatory cytokine production (Human monocytes [1]; monocytes in inflammation / LPS sepsis / viral infection mimicking environment)?
A: The inflammatory cytokine production was “reduce”.

Q: What about the “miRNA level related to M1 (inflammatory) or M2 (antiinflammatory) commitment” value (Human monocytes [2]) of the same substance?
A: The value was “inhibitory effects”.

Q: What about the “production of IL12 and 23 during inflammation” value (Human monocytes [3]) of the same substance?
A: The value was “reduction”.
